Reference: the NIST ThermoML archive (doi:10.1021/je900468u)
Values joined by “and” are separate entries in the source; they are usually repeats but may differ in a detail not shown here. Equal entries are not always repeated.

How the values were obtained:
[1] = xn = mol fraction of the nth substance listed; settings: 101 kPa, Liquid; for speed of sound: Pulse-echo method
[2] = refractive index (Na D-line) (dimensionless); xn = mol fraction of the nth substance listed; settings: 101 kPa, Liquid, Standard Abbe refractometry
[3] = 101 kPa, Liquid; for speed of sound: Pulse-echo method
[4] = refractive index (Na D-line) (dimensionless); settings: 101.33 kPa, Liquid, Standard Abbe refractometry

CCc1ccccc1 [ethylbenzene] + C1CCCCCCC1
298.15 K, x2 = 0
Settings	mass density [kg/m3]	refractive index	speed of sound [m/s]
[1]	862.5	–	1319
[2]	–	1.49304	–

c1ccccc1 [benzene] + CC1CCCCC1
x2 = 0
Settings	mass density, [1] [kg/m3]	refractive index, [2]	speed of sound, [1] [m/s]
283.15 K	889.5	1.50765	1371
298.15 K	873.6	1.49774	1299

Cc1ccccc1 [toluene] + C1CCCCCCC1
298.15 K, x2 = 0
Settings	mass density [kg/m3]	refractive index	speed of sound [m/s]
[1]	862.2	–	1305
[2]	–	1.49399	–

CC1CCCCC1 [methylcyclohexane]
Settings	mass density, [3] [kg/m3]	refractive index, [4]	speed of sound, [3] [m/s]
283.15 K	777.9	1.42833	1281
298.15 K	765.1	1.42062	1215

Cc1ccccc1 [toluene] + C1CCCCC1
x2 = 0
Settings	mass density, [1] [kg/m3]	refractive index, [2]	speed of sound, [1] [m/s]
283.15 K	876.1	1.50278	1371
298.15 K	862.2	1.49399	1305

CCc1ccccc1 [ethylbenzene] + C1CCCCC1
Settings	mass density, [1] [kg/m3]	refractive index, [2]	speed of sound, [1] [m/s]
283.15 K, x2 = 0	875.7	1.50129	1382
283.15 K, x2 = 0.0476	871.4	1.49802	1377
283.15 K, x2 = 0.0982	866.9	1.49455	1372
283.15 K, x2 = 0.1983	857.9	1.48762	1364
283.15 K, x2 = 0.2982	848.9	1.48066	1356
283.15 K, x2 = 0.3973	840.1	1.47373	1349
283.15 K, x2 = 0.5016	830.7	1.46641	1342
283.15 K, x2 = 0.6008	821.8	1.45942	1337
283.15 K, x2 = 0.6995	813.2	1.45257	1332
283.15 K, x2 = 0.7998	804.4	1.44558	1329
283.15 K, x2 = 0.8967	796.3	1.43898	1328
283.15 K, x2 = 0.9451	792.3	1.43569	1328
298.15 K, x2 = 0	862.5	1.49304	1319
298.15 K, x2 = 0.0476	858.2	1.48992	1314
298.15 K, x2 = 0.0982	853.7	1.48645	1309
298.15 K, x2 = 0.1983	844.7	1.47947	1300
298.15 K, x2 = 0.2982	835.6	1.47245	1291
298.15 K, x2 = 0.3973	826.7	1.46552	1283
298.15 K, x2 = 0.5016	817.2	1.45815	1275
298.15 K, x2 = 0.6008	808.3	1.45116	1268
298.15 K, x2 = 0.6995	799.5	1.44433	1263
298.15 K, x2 = 0.7998	790.7	1.43731	1258
298.15 K, x2 = 0.8967	782.4	1.43062	1255
298.15 K, x2 = 0.9451	778.4	1.42735	1254

C1CCCCCCC1 [cyclooctane]
298.15 K
Settings	mass density [kg/m3]	refractive index	speed of sound [m/s]
[3]	831.5	–	1391
[4]	–	1.45598	–

c1ccccc1 [benzene] + C1CCCCCCC1
298.15 K, x2 = 0
Settings	mass density [kg/m3]	refractive index	speed of sound [m/s]
[1]	873.6	–	1299
[2]	–	1.49774	–

c1ccccc1 [benzene]
Settings	mass density, [3]	refractive index, [4]	speed of sound, [3] [m/s]
283.15 K	889.5 kg/m3	1.50765	1371
298.15 K	873.9 kg/m3 and 873.6 kg/m3	1.49774	1299

C1CCCCCCC1 [cyclooctane] + Cc1ccccc1
298.15 K
Settings	mass density, [1] [kg/m3]	refractive index, [2]	speed of sound, [1] [m/s]
x1 = 0.0488	859.8	1.49121	1307
x1 = 0.1031	857	1.48824	1309
x1 = 0.2021	852.5	1.48313	1315
x1 = 0.2973	848.5	1.47861	1321
x1 = 0.4014	844.7	1.47411	1329
x1 = 0.5	841.5	1.47026	1337
x1 = 0.6005	838.7	1.46667	1347
x1 = 0.6976	836.4	1.46358	1356
x1 = 0.7981	834.4	1.46073	1367
x1 = 0.9007	832.8	1.45814	1378
x1 = 0.9494	832.1	1.45705	1384
x1 = 1	831.5	1.45598	1391

Cc1ccccc1 [toluene]
Settings	mass density, [3] [kg/m3]	refractive index, [4]	speed of sound, [3] [m/s]
283.15 K	876.1	1.50278	1371
298.15 K	862.2	1.49399	1305

c1ccccc1 [benzene] + C1CCCCC1
x2 = 0
Settings	mass density, [1] [kg/m3]	refractive index, [2]	speed of sound, [1] [m/s]
283.15 K	889.5	1.50765	1371
298.15 K	873.9	1.49774	1299

C1CCCCC1 [cyclohexane] + CCc1ccccc1
x1 = 1
Settings	mass density, [1] [kg/m3]	refractive index, [2]	speed of sound, [1] [m/s]
283.15 K	787.8	1.43193	1329
298.15 K	773.9	1.4236	1255

CCc1ccccc1 [ethylbenzene] + CC1CCCCC1
x2 = 0
Settings	mass density, [1] [kg/m3]	refractive index, [2]	speed of sound, [1] [m/s]
283.15 K	875.7	1.50129	1382
298.15 K	862.5	1.49304	1319

CC1CCCCC1 [methylcyclohexane] + Cc1ccccc1
Settings	mass density, [1] [kg/m3]	refractive index, [2]	speed of sound, [1] [m/s]
283.15 K, x1 = 0.05	869.8	1.49797	1363
283.15 K, x1 = 0.0998	863.7	1.49331	1356
283.15 K, x1 = 0.198	852	1.48436	1342
283.15 K, x1 = 0.2951	841	1.47614	1330
283.15 K, x1 = 0.3968	830.3	1.46797	1320
283.15 K, x1 = 0.4959	820.3	1.46042	1311
283.15 K, x1 = 0.5973	810.7	1.45319	1302
283.15 K, x1 = 0.697	801.8	1.44643	1296
283.15 K, x1 = 0.7954	793.5	1.44018	1290
283.15 K, x1 = 0.8932	785.8	1.4342	1285
283.15 K, x1 = 0.9487	781.6	1.43118	1283
283.15 K, x1 = 1	777.9	1.42833	1281
298.15 K, x1 = 0.05	855.9	1.48937	1297
298.15 K, x1 = 0.0998	849.9	1.48481	1290
298.15 K, x1 = 0.198	838.2	1.47597	1276
298.15 K, x1 = 0.2951	827.4	1.4678	1264
298.15 K, x1 = 0.3968	816.8	1.45982	1253
298.15 K, x1 = 0.4959	806.9	1.45225	1244
298.15 K, x1 = 0.5973	797.4	1.44519	1236
298.15 K, x1 = 0.697	788.6	1.4385	1229
298.15 K, x1 = 0.7954	780.4	1.43233	1223
298.15 K, x1 = 0.8932	772.7	1.42635	1219
298.15 K, x1 = 0.9487	768.6	1.42344	1216
298.15 K, x1 = 1	765.1	1.42062	1215
